Experimental findings from ChEMBL document CHEMBL1201862, “PubChem BioAssay data set” (2004) are described below.

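Protocol summary: plate cells (96-well), add compound at 5 concentrations, incubate 48 h, interpolate endpoints linearly. GI50 marks 50% less growth.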 Calls of active or inactive are those of the source. Cut-off read from the data, not from the text of the source: active = GI50 up to about 1.1 µM and inactive = higher.

Some test systems named below: A498; EKVX; HCT-116; HCT-15; HOP-62; IGROV-1; KM12; MDA-MB-231; MDA-MB-435; MOLT-4; NCI-H460; OVCAR-4; OVCAR-5; OVCAR-8; SK-MEL-2; SN12C; SNB-75; T47D; U-251.
Holding throughout (assay): NCI tumour cell line growth inhibition, 48 h

On to `C=C1C(=O)O[C@@H]2[C@H]1C[C@H](I)[C@@]1(C)CC[C@H](O1)[C@](C)(I)CCCC(C)[C@@H]2O` (some centres not stated), for which the GI50 in the assay on A498 was 14.6 µM (inactive); in the assay on EKVX it was 8.95 µM (inactive); in the assay with HCT-116, 2.88 µM (inactive); with HCT-15 it was 1.76 µM; in the assay with HOP-62, 19.4 µM (inactive); in the assay on IGROV-1, 2.01 µM (inactive). Also, the GI50 in the assay with KM12 is 9.04 µM (inactive); with MDA-MB-231, 4.22 µM (inactive); with MDA-MB-435 it was 4.9 µM (inactive); with MOLT-4, 1.49 µM (inactive); in the assay on NCI-H460 it was 14.5 µM (inactive); in the assay on OVCAR-4, 6.32 µM (inactive). Further, the GI50 with OVCAR-5 is 8.69 µM (inactive); with OVCAR-8 it was 2.96 µM (inactive); in the assay on SK-MEL-2 it was 12.9 µM (inactive); in the assay on SN12C, 4.98 µM (inactive); in the assay on SNB-75, 2.33 µM (inactive); in the assay on T47D, 3.79 µM (inactive). Besides, the GI50 with U-251 is 6.07 µM (inactive).
For `CC(Oc1ccc(Cl)cc1Cl)C(=O)NN1C(=O)CC(=O)N(c2ccccc2)C1=S` (configuration not stated), the GI50 in the assay on A498 is 26.9 µM (inactive); with EKVX, 69.5 µM (inactive); in the assay with HCT-116, 35.5 µM (inactive); in the assay on HCT-15, 38.2 µM; in the assay with HOP-62, 56.2 µM (inactive); with IGROV-1, 55.3 µM (inactive). Further, the GI50 in the assay with KM12 is 18.1 µM (inactive); in the assay on MDA-MB-231, 65.9 µM (inactive); in the assay on MDA-MB-435, 41.9 µM (inactive); with MOLT-4, 46.3 µM (inactive); with NCI-H460, 62.8 µM (inactive); in the assay with OVCAR-4, 45.8 µM (inactive). Further, the GI50 in the assay with OVCAR-5 was > 100 µM (inactive); in the assay on OVCAR-8, 50.2 µM (inactive); in the assay with SK-MEL-2, 42.2 µM (inactive); with SN12C, 52.4 µM (inactive); with SNB-75 it was 54.1 µM (inactive); in the assay on T47D, 43.2 µM (inactive). In the assay with U-251, the GI50 is 41.9 µM (inactive).
For `Nc1ncn(C/C=C/c2ccccc2)c2ncnc1-2`, the GI50 was 75.3 µM (inactive) with A498; 32.4 µM (inactive) in the assay with EKVX; > 100 µM (inactive) with HCT-116; more than 100 µM in the assay with HCT-15; > 100 µM (inactive) in the assay on HOP-62; > 100 µM (inactive) with IGROV-1. Also, the GI50 was > 100 µM (inactive) in the assay with KM12; > 100 µM (inactive) with MDA-MB-231; > 100 µM (inactive) in the assay on MDA-MB-435; 16.6 µM (inactive) in the assay with MOLT-4; > 100 µM (inactive) in the assay with NCI-H460; > 100 µM (inactive) in the assay with OVCAR-4. The GI50 in the assay with OVCAR-5 is > 100 µM (inactive); in the assay on OVCAR-8, > 100 µM (inactive); with SK-MEL-2, > 100 µM (inactive); with SN12C, > 100 µM (inactive); in the assay on SNB-75 it was 70.3 µM (inactive); in the assay with T47D it was > 100 µM (inactive). In the assay with U-251, the GI50 is > 100 µM (inactive).
For the molecule `O=C1Oc2ccccc2C1C/C(=N\Nc1ccccc1)c1ccccc1O` (configuration not stated), the GI50 in the assay with A498 was 33.7 µM (inactive); in the assay on EKVX, 26.5 µM (inactive); in the assay on HCT-116, 28.4 µM (inactive); with HCT-15, 34.3 µM; in the assay with HOP-62 it was 53.3 µM (inactive); in the assay on IGROV-1, 17 µM (inactive). Moreover, the GI50 in the assay with KM12 is 7.46 µM (inactive); in the assay on MDA-MB-231 it was 28.9 µM (inactive); with MDA-MB-435, 27.2 µM (inactive); in the assay on MOLT-4, 29.9 µM (inactive); with NCI-H460, 34.4 µM (inactive); in the assay on OVCAR-4 it was 32.7 µM (inactive). In addition, the GI50 in the assay on OVCAR-5 is > 100 µM (inactive); in the assay on OVCAR-8 it was 32.4 µM (inactive); in the assay with SK-MEL-2, 35.5 µM (inactive); in the assay on SN12C, 42 µM (inactive); in the assay with SNB-75, 56.8 µM (inactive); in the assay with T47D it was 11.3 µM (inactive). Further, the GI50 in the assay on U-251 was 40.3 µM (inactive).
As to `CC1CNC(c2cccc(OCc3ccc(COc4cccc(C5=NC(C)CN5)c4)cc3)c2)=N1` (configuration not stated), the GI50 in the assay with A498 is > 100 µM (inactive); in the assay on EKVX, 45.8 µM (inactive); in the assay with HCT-116, 23.6 µM (inactive); in the assay with HCT-15, more than 100 µM; in the assay with HOP-62 it was 40.6 µM (inactive); in the assay with IGROV-1, > 100 µM (inactive). Further, the GI50 with KM12 is 22.7 µM (inactive); with MDA-MB-231 it was 42.3 µM (inactive); with MDA-MB-435, 45.5 µM (inactive); with MOLT-4, 19.3 µM (inactive); in the assay with NCI-H460, 22.5 µM (inactive); in the assay with OVCAR-4 it was 49.7 µM (inactive). Further, the GI50 with OVCAR-5 is 40.1 µM (inactive); in the assay with OVCAR-8, 56.8 µM (inactive); in the assay on SK-MEL-2, 20.8 µM (inactive); in the assay with SN12C it was 19.5 µM (inactive); in the assay with SNB-75 it was 22.2 µM (inactive); in the assay with T47D, 35.9 µM (inactive). Besides, the GI50 in the assay with U-251 is 35.6 µM (inactive).
Take `CC12CN(CC[N+](C)(C)C)CC1(C)C1CCC2O1` (configuration not stated): the GI50 with A498 is > 100 µM (inactive); in the assay with EKVX, > 100 µM (inactive); with HCT-116, > 100 µM (inactive); in the assay on HCT-15 it was more than 100 µM; with HOP-62, > 100 µM (inactive); with IGROV-1, > 100 µM (inactive). Further, the GI50 in the assay with KM12, with MDA-MB-231, with MDA-MB-435, in the assay on MOLT-4, with NCI-H460 and in the assay with OVCAR-4 was > 100 µM (inactive) in each case. Further, the GI50 in the assay with OVCAR-5, in the assay with OVCAR-8, in the assay with SK-MEL-2, in the assay with SN12C, with SNB-75 and with T47D was > 100 µM (inactive) throughout. Also, the GI50 in the assay on U-251 was > 100 µM (inactive).
Consider `C[N+](C)([O-])CCC=C1c2ccccc2CCc2ccccc21`, for which the GI50 was 21.5 µM (inactive) in the assay with A498; 24.8 µM (inactive) with EKVX; 29.6 µM (inactive) with HCT-116; 27.7 µM in the assay on HCT-15; 15.6 µM (inactive) in the assay on HOP-62; 17.1 µM (inactive) in the assay on IGROV-1. Also, the GI50 is 18.1 µM (inactive) in the assay on KM12; 30.7 µM (inactive) with MDA-MB-231; 15.7 µM (inactive) in the assay with MDA-MB-435; 17.2 µM (inactive) in the assay on MOLT-4; 31.3 µM (inactive) in the assay on NCI-H460; 28.2 µM (inactive) in the assay with OVCAR-4. Moreover, the GI50 was 33.3 µM (inactive) in the assay on OVCAR-5; 23.4 µM (inactive) with OVCAR-8; 18.5 µM (inactive) in the assay with SK-MEL-2; 24.2 µM (inactive) in the assay with SN12C; 29.3 µM (inactive) in the assay with SNB-75; 22.2 µM (inactive) with T47D. The GI50 with U-251 was 18.2 µM (inactive).
Consider `Cc1ccc(N2CCC3(CC2)OCCO3)cc1`, for which the GI50 in the assay on A498 was > 100 µM (inactive); in the assay with EKVX, > 100 µM (inactive); with HCT-116, > 100 µM (inactive); in the assay with HCT-15 it was more than 100 µM; with HOP-62, > 100 µM (inactive); with IGROV-1, > 100 µM (inactive). For the same molecule, the GI50 in the assay with KM12, in the assay with MDA-MB-231, in the assay on MDA-MB-435, in the assay on MOLT-4, in the assay with NCI-H460 and in the assay on OVCAR-4 was > 100 µM (inactive) each time. In addition, the GI50 with OVCAR-5, in the assay with OVCAR-8, with SK-MEL-2, in the assay on SN12C, with SNB-75 and in the assay on T47D was > 100 µM (inactive) in each case. Further, the GI50 in the assay with U-251 is > 100 µM (inactive).
